Patent EP4707280A1, “1,4-CINEOLE DERIVATIVE AND INTERMEDIATE THEREOF, HERBICIDE CONTAINING SAID DERIVATIVE AS ACTIVE INGREDIENT, METHOD FOR USING HERBICIDE, AND METHOD FOR PREPARING AGROCHEMICAL COMPOSITION” (HOKKO CHEMICAL INDUSTRY CO., LTD., priority 2023, dated 2024)

Columns and labels:
Type in all cases: in vivo
[1] = test system: Echinochloa crus-galli var. formosensis; assay: Test Example 2: herbicidal effect test by application during growth period of paddy rice; conditions: 120 g per 10 ares, applied seven days after sowing, flooded pots, 14 days after application; for inhibition at 1200 g/ha: Echinochloa crus-galli, read-out: weed inhibition rate
How it was run: (§1)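 Weeds sown into puddled, flooded paddy soil received a post-emergence water application of emulsifiable concentrate at 120 g active ingredient per 10 ares, seven days after sowing. Herbicidal effect was rated 14 days later as inhibition (%).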

Echinochloa crus-galli [2] = assay: Test Example 4: herbicidal effect test by stem and leaf treatment in upland field; conditions: 120 g per 10 ares, sprayed seven days after sowing, upland soil, 14 days after application; for inhibition at 1200 g/ha: Echinochloa crus-galli, read-out: weed inhibition rate
Digitaria ciliaris [3] = assay: as above; conditions: 120 g per 10 ares, sprayed seven days after sowing, upland soil, 14 days after application; for inhibition at 1200 g/ha: Digitaria ciliaris, read-out: weed inhibition rate
[4] = test system: Echinochloa crus-galli var. formosensis; assay: Test Example 1: herbicidal effect test by soil application in paddy rice; conditions: 120 g active ingredient per 10 ares, applied immediately after sowing, flooded pots, 14 days after application; for pest or weed control at 1200 g/ha: Echinochloa crus-galli, soil, 336 h, read-out: weed inhibition rate
How it was run: (§2)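 Paddy soil in Wagner pots (1/10,000 acre), fertilized and puddled; 30 seeds per species sown at 0–1 cm, flooded to ~3 cm, greenhouse. Water-diluted emulsifiable concentrate dropped onto flooded pots right after sowing at 120 g active ingredient per 10 ares.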

Scirpus juncoides [5] = assay: as above; conditions: 120 g active ingredient per 10 ares, applied immediately after sowing, flooded pots, 14 days after application; for pest or weed control at 1200 g/ha: Schoenoplectiella juncoides, soil, 336 h, read-out: weed inhibition rate
How it was run: as §2

Monochoria vaginalis [6] = assay: as above; conditions: 120 g active ingredient per 10 ares, applied immediately after sowing, flooded pots, 14 days after application; for pest or weed control at 1200 g/ha: Pontederia vaginalis, soil, 336 h, read-out: weed inhibition rate
Description: (§3) Wagner pots with an area of […] were filled with paddy soil, followed by addition of water and incorporation of chemical fertilizer (N:P:K = 16:16:16), after which puddling was performed. After that, seeds of Echinochloa crus-galli var. formosensis, broad-leaved weeds (Lindernia pyxidaria and Monochoria vaginalis), and Scirpus juncoides were sown at a depth of 0 cm to 1 cm, 30 seeds each. Immediately after sowing, the pots were flooded and a water depth of approximately 3 cm was maintained. Subsequent management was conducted in a glass greenhouse. Immediately thereafter, an emulsifiable concentrate prepared according to Formulation Example 5 using the compound shown below was diluted with water, and a specified amount of the diluted solution was applied by dropper. The amount of the active ingredient to be applied was equivalent to 120 g per 10 ares.
(§4) The present test was conducted in duplicate for each chemical concentration group, and the weed inhibition rate (%) was determined 14 days after chemical application using the following formula (Math. 1). [formula]

Echinochloa crus-galli [7] = assay: Test Example 8: herbicidal effect test by stem and leaf treatment in upland field (low dose); conditions: 7.5 g per 10 ares, sprayed seven days after sowing, upland soil, 14 days after application; for inhibition at 75 g/ha: Echinochloa crus-galli, read-out: weed inhibition rate
Echinochloa crus-galli [8] = assay: Test Example 3: herbicidal effect test by soil application in upland field; conditions: 120 g per 10 ares, sprayed one day after sowing, 14 days after application; for inhibition at 1200 g/ha: Echinochloa crus-galli, read-out: weed inhibition rate
How it was run: (§5)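 Pre-emergence test: seeds mixed into top 1 cm of alluvial loam upland soil in pots; emulsifiable concentrate diluted in water sprayed on soil one day after sowing at 100 L/10 a, 120 g a.i./10 a. Weed inhibition rate (%) scored at 14 days, in duplicate.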

Chenopodium album = assay: as above; conditions: 120 g per 10 ares, sprayed one day after sowing, 14 days after application, read-out: weed inhibition rate
How it was run: as §5

Digitaria ciliaris [9] = assay: as above; conditions: 120 g per 10 ares, sprayed one day after sowing, 14 days after application; for inhibition at 1200 g/ha: Digitaria ciliaris, read-out: weed inhibition rate
How it was run: as §5

[10] = test system: Echinochloa crus-galli var. formosensis; assay: Test Example 6: herbicidal effect test by application during growth period of paddy rice (low dose); conditions: 7.5 g per 10 ares, applied seven days after sowing, flooded pots, 14 days after application; for inhibition at 75 g/ha: Echinochloa crus-galli, read-out: weed inhibition rate
How it was run: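 Paddy soil in flooded Wagner pots (about 3 cm water), weeds sown at 0–1 cm, 30 seeds each, grown in a glass greenhouse. Seven days after sowing, water-diluted emulsifiable concentrate was dropped into the water at 7.5 g active ingredient per 10 ares. Weed inhibition rate (%) was scored 14 days after application, in duplicate.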

[11] = test system: Echinochloa crus-galli var. formosensis; assay: Test Example 5: herbicidal effect test by soil application in paddy rice (low dose); conditions: 7.5 g per 10 ares, applied immediately after sowing, flooded pots, 14 days after application; for inhibition at 75 g/ha: Echinochloa crus-galli, soil, 336 h, read-out: weed inhibition rate
How it was run: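 Pots of puddled, fertilized paddy soil receive 30 seeds per species at 0–1 cm depth and are flooded to about 3 cm. The diluted emulsifiable concentrate is then dropped onto the water, delivering 7.5 g active ingredient per 10 ares. Greenhouse grown; herbicidal effect scored 14 days later, two replicates.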

Scirpus juncoides [12] = assay: as above; conditions: Schoenoplectiella juncoides, 336 h, 7.5 g per 10 ares, applied immediately after sowing, flooded pots, 14 days after application, read-out: weed inhibition rate
Description: as §4
as §3, with “(Monochoria” for “(Lindernia pyxidaria and Monochoria”, “7.5” for “120”
The present test was conducted in duplicate for each chemical concentration group, and the herbicidal effect was evaluated 14 days after chemical application using the same criteria as in Test Example 1.

Monochoria vaginalis [13] = assay: Test Example 2: herbicidal effect test by application during growth period of paddy rice; conditions: Pontederia vaginalis; 120 g per 10 ares; applied seven days after sowing, flooded pots; 14 days after application; read-out: weed inhibition rate
How it was run: as §1

Lindernia pyxidaria [14] = assay: Test Example 1: herbicidal effect test by soil application in paddy rice; conditions: 336 h, 120 g active ingredient per 10 ares, applied immediately after sowing, flooded pots, 14 days after application, read-out: weed inhibition rate
Description: as §3, §4

Amaranthus viridis = assay: Test Example 3: herbicidal effect test by soil application in upland field; conditions: 120 g per 10 ares, sprayed one day after sowing, 14 days after application; for inhibition at 1200 g/ha: Amaranthus viridis, read-out: weed inhibition rate
How it was run: as §5

Lindernia pyxidaria [15] = assay: Test Example 2: herbicidal effect test by application during growth period of paddy rice; conditions: 120 g per 10 ares, applied seven days after sowing, flooded pots, 14 days after application, read-out: weed inhibition rate
How it was run: as §1

Scirpus juncoides [16] = assay: as above; conditions: 120 g per 10 ares, applied seven days after sowing, flooded pots, 14 days after application
How it was run: as §1

Echinochloa crus-galli [17] = assay: Test Example 7: herbicidal effect test by soil application in upland field (low dose); conditions: 7.5 g per 10 ares, sprayed one day after sowing, 14 days after application
How it was run: (§6)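 Low-dose soil treatment at 7.5 g a.i. per 10 a, applied as a diluted emulsifiable concentrate sprayed onto the soil surface one day after sowing in upland alluvial loam. Duplicate pots; percent weed inhibition is read 14 days after application.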

Digitaria ciliaris [18] = assay: as above; conditions: 7.5 g per 10 ares, sprayed one day after sowing, 14 days after application
How it was run: as §6

Digitaria ciliaris [19] = assay: Test Example 8: herbicidal effect test by stem and leaf treatment in upland field (low dose); conditions: Digitaria ciliaris; 7.5 g per 10 ares; sprayed seven days after sowing, upland soil; 14 days after application; read-out: weed inhibition rate

Cc1ccc(CO[C@@H]2C[C@]3(C(C)C)O[C@@]2(C)CC3=O)cc1 [2-350, (1R,4S,5R)-1-isopropyl-4-methyl-5-[(4-methylbenzyl)oxy]-7-oxabicyclo[2.2.1]heptan-2-one]
≥ 80%: inhibition at 1200 g/ha [1] | inhibition at 1200 g/ha (Echinochloa crus-galli [2]) | inhibition at 1200 g/ha (Digitaria ciliaris [3]) | pest or weed control at 1200 g/ha [4] | pest or weed control at 1200 g/ha (Scirpus juncoides [5]) | pest or weed control at 1200 g/ha (Monochoria vaginalis [6]) | inhibition at 75 g/ha (Echinochloa crus-galli [7]) | inhibition at 1200 g/ha (Echinochloa crus-galli [8]) | inhibition at 1200 g/ha (Chenopodium album) | inhibition at 1200 g/ha (Digitaria ciliaris [9]) | inhibition at 75 g/ha [10] | inhibition at 75 g/ha [11]

CC(C)[C@]12C[C@@H](OCc3ccccc3F)[C@](C)(CC1c1cccc(F)c1)O2 (stereo partly drawn) [1-923, (1S,2R,4R)-2-((2-fluorobenzyl)oxy)-5-(3-fluorophenyl)-4-isopropyl-1-methyl-7-oxabicyclo[2.2.1]heptane]
≥ 80%: inhibition at 75 g/ha (Scirpus juncoides [12]) | inhibition at 1200 g/ha [1] | inhibition at 1200 g/ha (Echinochloa crus-galli [2]) | pest or weed control at 1200 g/ha [4] | pest or weed control at 1200 g/ha (Scirpus juncoides [5]) | inhibition at 1200 g/ha (Echinochloa crus-galli [8])

CC(C)[C@]12C[C@@H](OCc3ccccc3F)[C@](C)(CC1c1ccccc1F)O2 (stereo partly drawn) [1-922, (1S,2R,4R)-2-((2-fluorobenzyl)oxy)-5-(2-fluorophenyl)-4-isopropyl-1-methyl-7-oxabicyclo[2.2.1]heptane]
≥ 80%: inhibition at 1200 g/ha (Monochoria vaginalis [13]) | inhibition at 1200 g/ha [1] | inhibition at 1200 g/ha (Echinochloa crus-galli [2]) | inhibition at 1200 g/ha (Digitaria ciliaris [3]) | pest or weed control at 1200 g/ha [4] | pest or weed control at 1200 g/ha (Scirpus juncoides [5]) | pest or weed control at 1200 g/ha (Lindernia pyxidaria [14]) | pest or weed control at 1200 g/ha (Monochoria vaginalis [6]) | inhibition at 1200 g/ha (Echinochloa crus-galli [8]) | inhibition at 75 g/ha [11]

CC(C)[C@]12C[C@@H](OCCOCc3ccccc3)[C@](C)(C[C@@H]1Br)O2 [1-725, (1S,2R,4R,5S)-5-bromo-1-methyl-2-(2-phenylmethoxyethoxy)-4-isopropyl-7-oxabicyclo[2.2.1]heptane]
≥ 80%: inhibition at 1200 g/ha [1] | inhibition at 1200 g/ha (Echinochloa crus-galli [2]) | inhibition at 1200 g/ha (Amaranthus viridis)

Cc1cccc(CO[C@@H]2C[C@]3(C(C)C)O[C@@]2(C)CC3=O)c1 [2-352, (1R,4S,5R)-1-isopropyl-4-methyl-5-((3-methylbenzyl)oxy)-7-oxabicyclo[2.2.1]heptan-2-one]
≥ 80%: inhibition at 1200 g/ha (Lindernia pyxidaria [15]) | inhibition at 1200 g/ha [1] | inhibition at 1200 g/ha (Scirpus juncoides [16]; Schoenoplectiella juncoides, read-out: weed inhibition rate) | inhibition at 1200 g/ha (Echinochloa crus-galli [2]) | inhibition at 1200 g/ha (Digitaria ciliaris [3]) | pest or weed control at 1200 g/ha [4] | pest or weed control at 1200 g/ha (Scirpus juncoides [5]) | inhibition at 1200 g/ha (Echinochloa crus-galli [8]) | inhibition at 1200 g/ha (Digitaria ciliaris [9]) | inhibition at 75 g/ha [10] | inhibition at 75 g/ha [11]

Cc1cccc(C2C[C@]3(C)O[C@@]2(C(C)C)C[C@H]3OCc2ccccc2F)c1 (stereo partly drawn) [1-926, (1S,2R,4R)-2-((2-fluorobenzyl)oxy)-4-isopropyl-1-methyl-5-(m-tolyl)-7-oxabicyclo[2.2.1]heptane]
≥ 80%: inhibition at 1200 g/ha [1] | pest or weed control at 1200 g/ha [4] | pest or weed control at 1200 g/ha (Scirpus juncoides [5]) | inhibition at 1200 g/ha (Echinochloa crus-galli [8]) | inhibition at 1200 g/ha (Amaranthus viridis) | inhibition at 1200 g/ha (Chenopodium album)

CCOC(C)O[C@H]1C[C@]2(C)O[C@@]1(C(C)C)C[C@H]2OCc1ccccc1F (stereo partly drawn) [1-213, (1R,28,4S,5R)-2-(1-ethoxyethoxy)-5-((2-fluorobenzyl)oxy)-1-isopropyl-4-methyl-7-oxabicyclo[2.2.1]heptane]
≥ 80%: weed inhibition rate [1] | weed inhibition rate (Scirpus juncoides [16]) | weed inhibition rate (Echinochloa crus-galli [2]) | weed inhibition rate (Digitaria ciliaris [3]) | weed inhibition rate [4] | weed inhibition rate (Scirpus juncoides [5]) | weed inhibition rate (Echinochloa crus-galli [17]) | weed inhibition rate (Digitaria ciliaris [18]) | weed inhibition rate (Monochoria vaginalis [6]) | weed inhibition rate (Echinochloa crus-galli [7]) | weed inhibition rate (Echinochloa crus-galli [8]) | weed inhibition rate (Amaranthus viridis) | weed inhibition rate (Digitaria ciliaris [9]) | weed inhibition rate [10] | weed inhibition rate [11]

CC(C)[C@]12C[C@@H](OCc3ccccc3F)[C@](C)(CC1c1ccccc1)O2 (stereo partly drawn) [1-322, (1S,2R,4R)-2-((2-fluorobenzyl)oxy)-4-isopropyl-1-methyl-5-phenyl-7-oxabicyclo[2.2.1]heptane]
≥ 80%: inhibition at 1200 g/ha [1] | inhibition at 1200 g/ha (Echinochloa crus-galli [2]) | inhibition at 1200 g/ha (Digitaria ciliaris [3]) | pest or weed control at 1200 g/ha [4] | inhibition at 75 g/ha (Echinochloa crus-galli [7]) | inhibition at 75 g/ha (Digitaria ciliaris [19]) | inhibition at 1200 g/ha (Echinochloa crus-galli [8]) | inhibition at 1200 g/ha (Chenopodium album) | inhibition at 75 g/ha [10] | inhibition at 75 g/ha [11]

COc1ccc(CO[C@@H]2C[C@]3(C(C)C)O[C@@]2(C)CC3=O)cc1 [2-346, (1R,4S,5R)-1-isopropyl-5-((4-methoxybenzyl)oxy)-4-methyl-7-oxabicyclo[2.2.1]heptan-2-one]
≥ 80%: inhibition at 1200 g/ha [1] | inhibition at 1200 g/ha (Amaranthus viridis)
